For eleven compounds, TGI and GI50 results are on record in PubChem BioAssay (NCI).

SMILES strings stand for the structures. Several values for one entry are separate records, joined by “and”; a condition that tells them apart may be missing. Equal entries are not always repeated.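 Cells were grown in 96-well plates and exposed to each compound for 48 hours at five concentrations; endpoints were interpolated linearly between bracketing concentrations, or set to the highest concentration if not reached. The concentration for 50% growth inhibition is given as GI50. TGI: concentration producing complete growth inhibition.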

Among the test systems are HCC-2998 colon; HT29 colon; LOX IMVI melanoma; NCI-H226 lung; SK-MEL-2 melanoma; SNB-19 CNS; SNB-75 CNS; SR leukemia; U251 CNS; UACC-62 melanoma.
Test in all cases: DTP human tumour cell line panel, 48 h

By TGI is commonly meant the concentration at which net growth stops. The low end stands for greater sensitivity of the cells, the high end for lower sensitivity of the cells. A word on the GI50: it is the concentration giving 50% growth inhibition.

For `CC1(C)SC2C(C(=O)O)N=C(Cc3ccccc3)N2C1C(=O)O` (configuration not stated), the TGI was 56.9 µM with HCC-2998 colon; 29 µM in the test with HT29 colon; 60.5 µM with LOX IMVI melanoma; 51.3 µM in the test with NCI-H226 lung; greater than 100 µM in the test on SK-MEL-2 melanoma; greater than 100 µM in the test with SNB-19 CNS. The TGI in the test on SNB-75 CNS is 49.2 µM; in the test on SR leukemia, greater than 100 µM; in the test on U251 CNS it was greater than 100 µM; with UACC-62 melanoma, greater than 100 µM.
Take `C[C@]12CCC3c4ccc(OC(=O)c5ccccc5)cc4CC[C@H]3C1CC[C@@H]2OC(=O)C12OC1CCC2=O` (some centres not stated): the TGI in the test with HCC-2998 colon was greater than 71.9 µM; in the test on HT29 colon, 7.55 µM; with LOX IMVI melanoma, 8.13 µM; in the test with NCI-H226 lung, 34.5 µM; in the test with SK-MEL-2 melanoma, 16 µM; in the test with SNB-19 CNS, 37 µM. Further, the total growth inhibition concentration (TGI) in the test with SNB-75 CNS came out at 19.1 µM; in the test on SR leukemia, 13.5 µM; in the test with U251 CNS, 17.4 µM; in the test on UACC-62 melanoma, 38.4 µM.
Turning to `C/C(=N\O)c1sc(-n2nc(-c3ccccc3)cc2-c2ccccc2)nc1C`, the TGI in the test on HCC-2998 colon was 18.2 µM; with HT29 colon, 19 µM; in the test with LOX IMVI melanoma, 18 µM; in the test with NCI-H226 lung it was 17.6 µM; in the test with SK-MEL-2 melanoma, greater than 65.6 µM; in the test with SNB-19 CNS, 17.9 µM. The TGI is greater than 31.6 µM in the test on SNB-75 CNS, 28.6 µM in the test with SR leukemia, 16.3 µM in the test on U251 CNS and 16.9 µM with UACC-62 melanoma.
On to `Nc1nc(N)c2nc(CNc3ccc(C(=O)CC(CCC(=O)O)C(=O)O)cc3)cnc2n1` (configuration not stated), for which the GI50 is 179 nM with HCC-2998 colon; 41.7 nM with HT29 colon; less than 22.9 nM with LOX IMVI melanoma; 1070 nM in the test with NCI-H226 lung; greater than 100 µM in the test on SK-MEL-2 melanoma; 0.627 µM in the test with SNB-19 CNS. Also, the GI50 is 4.71 µM with SNB-75 CNS, less than 19 nM in the test with SR leukemia, 215 nM with U251 CNS and 374 nM with UACC-62 melanoma. For the same compound, the TGI was greater than 96.2 µM in the test with HCC-2998 colon; greater than 100 µM with HT29 colon; greater than 100 µM with LOX IMVI melanoma; greater than 100 µM in the test on NCI-H226 lung; greater than 100 µM in the test with SK-MEL-2 melanoma; greater than 100 µM in the test on SNB-19 CNS. The TGI with SNB-75 CNS, with U251 CNS and in the test on UACC-62 melanoma was greater than 100 µM each time.
With `Cc1cc(C)c(C(=O)O)c(N)c1O`, the TGI in the test on HCC-2998 colon, in the test on HT29 colon, in the test on LOX IMVI melanoma, in the test with NCI-H226 lung, with SK-MEL-2 melanoma and in the test on SNB-19 CNS was greater than 100 µM in each case. Also, the TGI in the test on SNB-75 CNS, in the test on SR leukemia, in the test on U251 CNS and with UACC-62 melanoma was greater than 100 µM in each case.
Consider `O=C1c2ccccc2C(=O)N1/N=C\c1ccc(Br)cc1`, for which the GI50 in the test on HCC-2998 colon was greater than 100000 nM; with HT29 colon, greater than 100000 nM; with NCI-H226 lung, greater than 100000 nM; with SK-MEL-2 melanoma, greater than 100 µM; in the test with SNB-19 CNS it was greater than 100 µM; in the test on SNB-75 CNS it was greater than 100 µM. The GI50 in the test with SR leukemia and in the test with UACC-62 melanoma was greater than 100000 nM in each case. Further, the TGI with HCC-2998 colon was greater than 100 µM; with HT29 colon, greater than 100 µM; with LOX IMVI melanoma, greater than 10 µM; with NCI-H226 lung, greater than 100 µM; in the test on SK-MEL-2 melanoma, greater than 100 µM; in the test on SNB-19 CNS it was greater than 100 µM. Besides, the TGI with SNB-75 CNS, with SR leukemia, with U251 CNS and in the test on UACC-62 melanoma was greater than 100 µM each time.
For `Nc1ncc(-c2cnn(C3CCNCC3)c2)cc1-c1nc2ccccc2o1`, the GI50 in the test with HCC-2998 colon was 1180 nM; with HT29 colon it was 441 nM; in the test with LOX IMVI melanoma it was 1200 nM; with NCI-H226 lung it was 1970 nM; in the test on SK-MEL-2 melanoma, 1.1 µM; in the test on SNB-19 CNS, 3.25 µM. The GI50 in the test with SNB-75 CNS was 1.31 µM; with SR leukemia, 266 nM; in the test with U251 CNS, 1480 nM; in the test on UACC-62 melanoma, 1600 nM. Moreover, the TGI in the test on HCC-2998 colon came out at 3.09 µM; with HT29 colon, 2.63 µM; in the test on LOX IMVI melanoma, 2.59 µM; with NCI-H226 lung, 6.59 µM; in the test on SK-MEL-2 melanoma it was 2.72 µM; in the test with SNB-19 CNS, 10.6 µM. Moreover, the TGI worked out at 2.67 µM in the test with SNB-75 CNS, 1.09 µM with SR leukemia, 3.26 µM in the test on U251 CNS and 3.07 µM in the test with UACC-62 melanoma.
`CCCC(OCC)(OCC)OCC`: the total growth inhibition concentration (TGI) in the test with HCC-2998 colon, with HT29 colon, with LOX IMVI melanoma, in the test on NCI-H226 lung, with SK-MEL-2 melanoma and in the test with SNB-19 CNS was greater than 100 µM throughout. The TGI in the test on SNB-75 CNS, with SR leukemia, in the test on U251 CNS and in the test with UACC-62 melanoma was greater than 100 µM in each case.
On to `CC[C@H](C)c1occ2c(O)c(C(=O)O)c(=O)cc-2c1C`, for which the TGI in the test on HCC-2998 colon was 36.8 µM; in the test with HT29 colon, 62.3 µM; with LOX IMVI melanoma, 32.8 µM; with NCI-H226 lung, greater than 100 µM; with SK-MEL-2 melanoma it was 34 µM; in the test with SNB-19 CNS it was greater than 100 µM. For the same compound, the TGI with SNB-75 CNS was greater than 100 µM; in the test on SR leukemia it was 53.5 µM; in the test with U251 CNS it was 74.6 µM; in the test with UACC-62 melanoma, 37.4 µM.
As to `O=C(OC(C(=O)O)C(OC(=O)c1ccccc1)C(=O)O)c1ccccc1` (configuration not stated) (tested in a mixture with another compound), the TGI in the test with HCC-2998 colon is greater than 100 µM; in the test on HT29 colon, greater than 100 µM; with LOX IMVI melanoma it was > 100 µM and 44.6 µM; in the test with NCI-H226 lung, greater than 100 µM; in the test on SK-MEL-2 melanoma, > 100 µM and 28.7 µM; with SNB-19 CNS, greater than 100 µM. The TGI in the test with SNB-75 CNS is > 100 µM and 56 µM; in the test on SR leukemia it was greater than 100 µM; with U251 CNS, greater than 100 µM; in the test with UACC-62 melanoma it was greater than 100 µM.
For the compound `CCOC(=O)C12CCCC1(O)N(NC(=O)c1cccc(Cl)c1)C(C)=C2C(=O)OC` (configuration not stated), the TGI in the test with HCC-2998 colon, in the test on HT29 colon, in the test on LOX IMVI melanoma, in the test with NCI-H226 lung, with SK-MEL-2 melanoma and in the test on SNB-19 CNS was greater than 100 µM throughout. Moreover, the TGI in the test on SNB-75 CNS, with SR leukemia, in the test on U251 CNS and with UACC-62 melanoma was greater than 100 µM throughout.
